# Source: patent US10087178B2, “Substituted spiropyrido[1,2-a]pyrazine derivative and medicinal use thereof as HIV integrase inhibitor” (priority 2012, dated 2018)
# Structures can show the parent of a compound that is named as a salt. Where two headings read alike, the source gives them in different places.
# Test system: HIV-1 NL4-3 strain
# Assay: Evaluation of antiviral activity: acute infection system of MT-4 cell with HIV-1 NL4-3 strain
# Assay type: cell-based
# [1] = Human immunodeficiency virus 1, NL43, MT4, 120 h, MT-4 cells infected with HIV-1 NL4-3 strain (MOI 0.05), cultured 5 days, Cell Titer-Glo, read-out: antiviral activity (EC50)
# [2] = MT-4 cells infected with HIV-1 NL4-3 strain (MOI 0.05), cultured 5 days, Cell Titer-Glo, read-out: antiviral activity (EC50)
# [3] = Human immunodeficiency virus 1, NL43, MT4, 120 h, read-out: antiviral activity (EC50)
# [4] = Human immunodeficiency virus 1, NL43, MT4, 120 h, antiviral activity, MT-4 cells infected with HIV-1 NL4-3 (MOI 0.05), 5 days culture, Cell Titer-Glo luminescence, read-out: EC50
smiles,measurement,setting,value
"COC[C@H]1C[C@@]2(CN(C)C(=O)c3c(O)c(=O)c(C(=O)NCc4cccc(Cl)c4F)cn32)C1 [Example 27, N-(3-chloro-2-fluorobenzyl)-9′-hydroxy-trans-3-(methoxymethyl)-2′-methyl-1′,8′-dioxo-1′,2′,3′,8′-tetrahydrospiro[cyclobutane-1,4′-pyrido[1,2-a]pyrazine]-7′-carboxamide]",EC50,[1],1.5 nM
"COC[C@H]1C[C@]2(CN(C)C(=O)c3c(O)c(=O)c(C(=O)NCc4cccc(Cl)c4F)cn32)C1 [Example 28, Monosodium 7′-(3-chloro-2-fluorobenzylcarbamoyl)-cis-3-(methoxymethyl)-2′-methyl-1′,8′-dioxo-1′,2′,3′,8′-tetrahydrospiro[cyclobutane-1,4′-pyrido[1,2-a]pyrazin]-9′-olate]",EC50,[2],2.2 nM
"COC[C@H]1C[C@]2(CN(C)C(=O)c3c(O)c(=O)c(C(=O)NCc4cccc(Cl)c4F)cn32)C1 [Example 29, Monopotassium 7′-(3-chloro-2-fluorobenzylcarbamoyl)-cis-3-(methoxymethyl)-2′-methyl-1′,8′-dioxo-1′,2′,3′,8′-tetrahydrospiro[cyclobutane-1,4′-pyrido[1,2-a]pyrazin]-9′-olate]",EC50,[3],2.5 nM
"COC[C@H]1C[C@]2(CN(C)C(=O)c3c([O][Ca][O]c4c5n(cc(C(=O)NCc6cccc(Cl)c6F)c4=O)[C@]4(CN(C)C5=O)C[C@H](COC)C4)c(=O)c(C(=O)NCc4cccc(Cl)c4F)cn32)C1 [Example 30, Monocalcium bis[7′-(3-chloro-2-fluorobenzylcarbamoyl)-cis-3-(methoxymethyl)-2′-methyl-1′,8′-dioxo-1′,2′,3′,8′-tetrahydrospiro[cyclobutane-1,4′-pyrido[1,2-a]pyrazin]-9′-olate]]",EC50,[1],1.1 nM
"COC[C@H]1C[C@]2(CN(C)C(=O)c3c(O)c(=O)c(C(=O)NCc4cccc(Cl)c4F)cn32)C1 [Example 31, N-(3-chloro-2-fluorobenzyl)-9′-hydroxy-cis-3-(methoxymethyl)-2′-methyl-1′,8′-dioxo-1′,2′,3′,8′-tetrahydrospiro[cyclobutane-1,4′-pyrido[1,2-a]pyrazine]-7′-carboxamide hydrobromide]",EC50,"MT-4 cells infected with HIV-1 NL4-3 strain (MOI 0.05), cultured 5 days, Cell Titer-Glo, hydrobromide, read-out: antiviral activity (EC50)",1.9 nM
"COC[C@H]1C[C@]2(CN(C)C(=O)c3c(O)c(=O)c(C(=O)NCc4cccc(Cl)c4F)cn32)C1 [Example 32, N-(3-chloro-2-fluorobenzyl)-9′-hydroxy-cis-3-(methoxymethyl)-2′-methyl-1′,8′-dioxo-1′,2′,3′,8′-tetrahydrospiro[cyclobutane-1,4′-pyrido[1,2-a]pyrazine]-7′-carboxamide monosulfate]",EC50,[2],0.9 nM
"COC[C@H]1C[C@]2(CN(C)C(=O)c3c(O)c(=O)c(C(=O)NCc4cccc(Cl)c4F)cn32)C1 [Example 33, N-(3-chloro-2-fluorobenzyl)-9′-hydroxy-cis-3-(methoxymethyl)-2′-methyl-1′,8′-dioxo-1′,2′,3′,8′-tetrahydrospiro[cyclobutane-1,4′-pyrido[1,2-a]pyrazine]-7′-carboxamide 4-methylbenzenesulfonate]",EC50,[2],0.9 nM
"COC[C@H]1C[C@]2(CN(C)C(=O)c3c(OC(C)=O)c(=O)c(C(=O)NCc4cccc(Cl)c4F)cn32)C1 [Example 37, 7′-(3-chloro-2-fluorobenzylcarbamoyl)-cis-3-(methoxymethyl)-2′-methyl-1′,8′-dioxo-1′,2′,3′,8′-tetrahydrospiro[cyclobutane-1,4′-pyrido[1,2-a]pyrazin]-9′-yl acetate]",EC50,[1],0.7 nM
"COC[C@H]1C[C@]2(CN(C)C(=O)c3c(OC(=O)/C=C/C(=O)O)c(=O)c(C(=O)NCc4cccc(Cl)c4F)cn32)C1 [Example 39, (E)-4-[7′-(3-chloro-2-fluorobenzylcarbamoyl)-cis-3-(methoxymethyl)-2′-methyl-1′,8′-dioxo-1′,2′,3′,8′-tetrahydrospiro[cyclobutane-1,4′-pyrido[1,2-a]pyrazin]-9′-yloxy]-4-oxobut-2-enoic acid]",EC50,[3],1.4 nM
"COC[C@H]1C[C@]2(CN(C)C(=O)c3c(OC(=O)c4cccc(C(=O)O)c4)c(=O)c(C(=O)NCc4cccc(Cl)c4F)cn32)C1 [Example 40, Monosodium 3-{[7′-(3-chloro-2-fluorobenzylcarbamoyl)-cis-3-(methoxymethyl)-2‘-methyl-’,8′-dioxo-1′,2′,3′,8′-tetrahydrospiro[cyclobutane-1,4′-pyrido[1,2-a]pyrazin]-9′-yloxy]carbonyl}benzoate]",EC50,[1],1 nM
"CC(C)N1C[C@]2(C[C@@H](OCc3ccccc3)C2)n2cc(C(=O)NCc3ccc(F)cc3F)c(=O)c(O)c2C1=O [Example S1, trans-3-(benzyloxy)-N-(2,4-difluorobenzyl)-9′-hydroxy-2′-isopropyl-1′,8-dioxo-1′,2′,3′,8′-tetrahydrospiro[cyclobutane-1,4′-pyrido[1,2-a]pyrazine]-7′-carboxamide hydrochloride]",EC50,[4],7.7 nM
"CC(C)N1C[C@]2(C[C@H](OCc3ccccc3)C2)n2cc(C(=O)NCc3ccc(F)cc3F)c(=O)c(O)c2C1=O [Example S2, cis-3-(benzyloxy)-N-(2,4-difluorobenzyl)-9′-hydroxy-2′-isopropyl-1′,8′-dioxo-1′,2′,3′,8′-tetrahydrospiro[cyclobutane-1,4′-pyrido[1,2-a]pyrazine]-7′-carboxamide hydrochloride]",EC50,[4],10 nM
"CO[C@H]1C[C@@]2(CN(C(C)C)C(=O)c3c(O)c(=O)c(C(=O)NCc4ccc(F)cc4F)cn32)C1 [Example S5, N-(2,4-difluorobenzyl)-9′-hydroxy-2′-isopropyl-trans-3-methoxy-1′,8′-dioxo-1′,2′,3′,8′-tetrahydrospiro[cyclobutane-1,4′-pyrido[1,2-a]pyrazine]-7′-carboxamide hydrochloride]",EC50,[4],4.4 nM
"CO[C@H]1C[C@]2(CN(C(C)C)C(=O)c3c(O)c(=O)c(C(=O)NCc4ccc(F)cc4F)cn32)C1 [Example S6, N-(2,4-difluorobenzyl)-9′-hydroxy-2′-isopropyl-cis-3-methoxy-1′,8′-dioxo-1′,2′,3′,8′-tetrahydrospiro[cyclobutane-1,4′-pyrido[1,2-a]pyrazine]-7′-carboxamide hydrochloride]",EC50,[4],3.7 nM
"CCO[C@H]1C[C@@]2(CN(C(C)C)C(=O)c3c(O)c(=O)c(C(=O)NCc4ccc(F)cc4F)cn32)C1 [Example S7, N-(2,4-difluorobenzyl)- trans-3-ethoxy-9′-hydroxy-2′-isopropyl-1′,8′-dioxo-1′,2′,3′,8′-tetrahydrospiro[cyclobutane-1,4′-pyrido[1,2-a]pyrazine]-7′-carboxamide hydrochloride]",EC50,[4],3.7 nM
"COCCO[C@H]1C[C@@]2(CN(C(C)C)C(=O)c3c(O)c(=O)c(C(=O)NCc4ccc(F)cc4F)cn32)C1 [Example S8, N-(2,4-difluorobenzyl)-9′-hydroxy-2′-isopropyl-trans-3-(2-methoxyethoxy)-1′,8′-dioxo-1′,2′-3′,8′-tetrahydrospiro[cyclobutane-1,4′-pyrido[1,2-a]pyrazine]-7′-carboxamide hydrochloride]",EC50,[4],5.3 nM
"CN1C[C@]2(C[C@@H](OCc3ccccc3)C2)n2cc(C(=O)NCc3ccc(F)cc3F)c(=O)c(O)c2C1=O [Example S9, trans-3-(benzyloxy)-N-(2,4-difluorobenzyl)-9′-hydroxy-2′-methyl-1′,8′-dioxo-1′,2′,3′,8′-tetrahydrospiro[cyclobutane-1,4′-pyrido[1,2-a]pyrazine]-7′-carboxamide hydrochloride]",EC50,[4],5.2 nM
